From PubChem BioAssay (NCI)
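Exposure lasted 48 hours, with cells grown in 96-well plates and compounds tested at five concentrations. The concentration for 50% growth inhibition is given as GI50. Definition used: TGI = concentration required for complete inhibition of growth.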

What was measured:
Assay in all cases: NCI anticancer screen, dose series, 48 h
[1] = test system: ACHN renal
[2] = test system: HL-60(TB) leukemia
[3] = test system: NCI-H522 lung
[4] = test system: U251 CNS
[5] = test system: SW-620 colon
[6] = test system: SR leukemia
[7] = test system: SN12C renal
[8] = test system: DU-145 prostate
[9] = test system: NCI-H460 lung
[10] = test system: HOP-62 NSCLC
[11] = test system: TK-10 renal
[12] = test system: UACC-62 melanoma
[13] = test system: UO-31 renal
[14] = test system: A498 renal
[15] = test system: CCRF-CEM leukemia
[16] = test system: BT-549 breast
[17] = test system: LOX IMVI melanoma
[18] = test system: A549 NSCLC
[19] = test system: SK-MEL-28 melanoma
[20] = test system: 786-0 renal
[21] = test system: PC-3 prostate
[22] = test system: MOLT-4 leukemia
[23] = test system: MDA-MB-231 breast
[24] = test system: T-47D breast
[25] = test system: SF-295 CNS
[26] = test system: CAKI-1 renal
[27] = test system: OVCAR-5 ovarian
[28] = test system: SF-539 CNS
[29] = test system: HT29 colon
[30] = test system: SNB-75 CNS
[31] = test system: RXF 393 renal
[32] = test system: NCI-H23 lung
[33] = test system: MALME-3M melanoma
[34] = test system: OVCAR-8 ovarian
[35] = test system: K-562 leukemia
[36] = test system: OVCAR-3 ovarian
[37] = test system: SK-MEL-5 melanoma
[38] = test system: COLO 205 colon
[39] = test system: IGROV1 ovarian
[40] = test system: SK-OV-3 ovarian
[41] = test system: SF-268 CNS
[42] = test system: OVCAR-4 ovarian
[43] = test system: M14 melanoma
[44] = test system: HOP-92 NSCLC
[45] = test system: HCC-2998 colon
[46] = test system: RPMI-8226 leukemia
[47] = test system: NCI/ADR-RES ovarian
[48] = test system: HCT-116 colon
[49] = test system: NCI-H226 lung
[50] = test system: MCF7 breast
[51] = test system: HCT-15 colon
[52] = test system: KM12 colon
[53] = test system: UACC-257 melanoma
[54] = test system: HS 578T breast
[55] = test system: SK-MEL-2 melanoma
[56] = test system: SNB-19 CNS
[57] = test system: MDA-MB-435
[58] = test system: EKVX NSCLC

**Q.** What does the source list for `COc1cc(/C=C/C(=O)c2c(C)nc3ccccc3c2/C=C/c2ccc(C)cc2)cc(OC)c1OC`?
**A.** GI50 [1]: 1990 nM; TGI [1]: 4.6 µM; GI50 [2]: 2220 nM; TGI [2]: 6.29 µM; GI50 [3]: 1830 nM; TGI [3]: 5.56 µM; GI50 [4]: 1730 nM; TGI [4]: 3.57 µM; GI50 [5]: 3.09 µM; TGI [5]: > 100 µM; GI50 [6]: 2000 nM; TGI [6]: 9.11 µM; GI50 [7]: 1850 nM; TGI [7]: 4.31 µM; GI50 [8]: 1860 nM; TGI [8]: 3.66 µM; GI50 [9]: 2060 nM; TGI [9]: 5.09 µM; GI50 [10]: 3.1 µM; TGI [10]: 9.94 µM; GI50 [11]: 5.37 µM; TGI [11]: 67 µM; GI50 [12]: 1600 nM; TGI [12]: 3.08 µM; GI50 [13]: 1370 nM; TGI [13]: 2670 nM; GI50 [14]: 2000 nM; TGI [14]: 4.87 µM; GI50 [15]: 2830 nM; TGI [15]: > 100 µM; GI50 [16]: 2060 nM; TGI [16]: 4.57 µM; GI50 [17]: 1450 nM; TGI [17]: 2760 nM; GI50 [18]: 2940 nM; TGI [18]: > 100 µM; GI50 [19]: 2020 nM; TGI [19]: 3.91 µM; GI50 [20]: 1950 nM; TGI [20]: 3.81 µM; GI50 [21]: 2590 nM; TGI [21]: 8.76 µM; GI50 [22]: 2560 nM; TGI [22]: > 100 µM; GI50 [23]: 2140 nM; TGI [23]: 5.23 µM; GI50 [24]: 2490 nM; TGI [24]: > 100 µM; GI50 [25]: 2190 nM; TGI [25]: 5.4 µM; GI50 [26]: 1400 nM; TGI [26]: 3.01 µM; GI50 [27]: 2180 nM; TGI [27]: 5.38 µM; GI50 [28]: 1920 nM; TGI [28]: 3.69 µM; GI50 [29]: 2810 nM; TGI [29]: 14 µM; GI50 [30]: 1470 nM; TGI [30]: 4.82 µM; GI50 [31]: 1630 nM; TGI [31]: 3.13 µM; GI50 [32]: 1720 nM; TGI [32]: 3.8 µM; GI50 [33]: 1850 nM; TGI [33]: 3.52 µM; GI50 [34]: 3.25 µM; TGI [34]: > 100 µM; GI50 [35]: 2750 nM; TGI [35]: > 100 µM; GI50 [36]: 1760 nM; TGI [36]: 3.23 µM; GI50 [37]: 1750 nM; TGI [37]: 3.24 µM; GI50 [38]: 2530 nM; TGI [38]: 6.09 µM; GI50 [39]: 1720 nM; TGI [39]: 3.72 µM; GI50 [40]: 11 µM; TGI [40]: > 100 µM; GI50 [41]: 2210 nM; TGI [41]: 6.42 µM; GI50 [42]: 5.62 µM; TGI [42]: 52.9 µM; GI50 [43]: 2180 nM; TGI [43]: 5.03 µM; GI50 [44]: 1610 nM; TGI [44]: 3.9 µM; GI50 [45]: 1730 nM; TGI [45]: 3.26 µM; GI50 [46]: 2560 nM; TGI [46]: 7.87 µM; GI50 [47]: 2480 nM; TGI [47]: 7.78 µM; GI50 [48]: 1360 nM; TGI [48]: 2820 nM; GI50 [49]: 2180 nM; TGI [49]: 6.11 µM; GI50 [50]: 1390 nM; TGI [50]: 3.51 µM; GI50 [51]: 1530 nM; TGI [51]: 3.62 µM; GI50 [52]: 1870 nM; TGI [52]: 3.6 µM; GI50 [53]: 2710 nM; TGI [53]: 7.32 µM; GI50 [54]: 3.26 µM; TGI [54]: > 100 µM; GI50 [55]: 2110 nM; TGI [55]: 5.05 µM; GI50 [56]: 1690 nM; TGI [56]: 3.14 µM; GI50 [57]: 1990 nM; TGI [57]: 4.55 µM; GI50 [58]: 2320 nM; TGI [58]: 6.32 µM
